Experimental data published in patent US4633014A, “Substituted 3-hydrazinopropionates” (priority 1983, dated 1986).

How the values were obtained:
[1] = system: white mice; assay: in vivo
Description: (§1) The study of the effect provided by the compounds according to the present invention on the cardio-vascular system was carried out in experiments on white mice. The specific (antiarrhythmic) effect and acute toxicity were studied.
(§2) The acute toxicity of the compounds according to the present invention was determined in experiments on white mice with a mass of 20-25 g. The test compounds were administered intraperitoneally in the form of aqueous solutions or suspensions in Twin-80. Observation over the test animals was effected for 10 days.

[2] = in vivo; settings: mouse, in vivo, ip
Description: as §1, §2

[3] = system: arrhythmia induced by an intravenous administration of calcium chloride; assay: Antiarrhythmic activity on a model of arrhythmia induced by intravenous calcium chloride (antagonism to calcium) in mice; format: in vivo; settings: white mice, 20-40 minutes before
Description: The specific (antiarrhythmic) effect and acute toxicity were studied.
The antiarrhythmic activity of the compounds according to the present invention was studied on a model of arrhythmia induced by an intravenous administration of calcium chloride. In experiments on white mice of both sexes with a mass of 18-25 g narcotized by urethane (1,200 mg/kg intraperitoneally) ECG in the second standard lead was recorded. A 2% solution of calcium chloride was introduced into the tail vein at a constant rate (0.01 ml for 2 sec). The dose of calcium chloride causing arrhythmia and the dose causing the heart arrest were determined. In the test groups the test compounds were administered intraperitoneally 20-40 minutes before the beginning of the experiment.

| SMILES | Relative toxisity to quinidine ([1]; mouse, in vivo, ip, 14400 min) | LD50 at 240 h [2] [mg/kg] | Dose of calcium chloride causing arrythmia in animals under experiment ([3]; intraperitoneal dose 5 mg/kg) | Dose of calcium chloride causing death in animals under experiment ([3]; intraperitoneal dose 5 mg/kg) | Dose of calcium chloride causing arrythmia in animals under experiment ([3]; intraperitoneal dose 15 mg/kg) | Dose of calcium chloride causing death in animals under experiment ([3]; intraperitoneal dose 15 mg/kg) | Dose of calcium chloride causing arrythmia in animals under experiment ([3]; intraperitoneal dose 25 mg/kg) | Dose of calcium chloride causing death in animals under experiment ([3]; intraperitoneal dose 25 mg/kg) | Relative toxisity to quinidine ([1]; white mice, intraperitoneal, relative to quinidine) |
| --- | --- | --- | --- | --- | --- | --- | --- | --- | --- |
| COC(=O)CCN(C(N)=O)N(C)C [I-1, 3-(2,2-Dimethyl-1-carbamoylhydrazino)-methylpropionate] | 13,3 | 2080 | 118,5 mg/kg | 149,0 mg/kg | 124,4 mg/kg | 138,3 mg/kg |  |  |  |
| CNC(=O)N(CCC(=O)OC)N(C)C [I-2, 3-(2,2-Dimethyl-1-methylcarbamoylhydrazino)-methylpropionate] | 14,7 | 2300 | 112,0 mg/kg | 128,5 mg/kg | 124,5 mg/kg | 140,6 mg/kg |  |  |  |
| COC(=O)CCN(C(=O)Nc1ccccc1)N(C)C [I-3, 3-(2,2-dimethyl-1-phenylcarbamoylhydrazino)-methylpropionate] | 8,6 | 1350 | 86,7 mg/kg | 97,0 mg/kg |  |  | 124,7 mg/kg | 130,0 mg/kg |  |
| COC(=O)CCN(C(=O)Nc1ccc(NC(=O)N(CCC(=O)OC)N(C)C)cc1)N(C)C [I-4, 3-(2,2-dimethyl-1-p-/2-dimethylamino-2-methylpropionato-2'-yl-ureido-1-yl/anilinocarbanylhydrazino)-methylpropionate] | 51,3 | 8000 | 86,0 mg/kg | 110,0 mg/kg |  |  | 103,7 mg/kg | 115,0 mg/kg |  |
| CNC(=S)N(CCC(=O)OC)N(C)C [I-5, 3-(2,2-dimethyl-1-methylthiocarbamoylhydrazino)methylpropionate] | 25,3 | 3950 | 87,5 mg/kg | 100,5 mg/kg |  |  | 127,3 mg/kg | 131,4 mg/kg |  |
| C=CCNC(=S)N(CCC(=O)OC)N(C)C [I-6, 3-(2,2-dimethyl-1-allylthiocarbamoylhydrazino)methylpropionate] | 20,5 | 3200 | 97,9 mg/kg | 110,4 mg/kg |  |  | 100,9 mg/kg | 113,7 mg/kg |  |
| COC(=O)CCN(C(=S)Nc1ccccc1)N(C)C [I-7, 3-(2,2-dimethyl-1-phenylthiocarbamoylhydrazino)methylpropionate] | 13,4 | 2100 | 132 mg/kg | 135,6 mg/kg | 107,5 mg/kg | 138,0 mg/kg | 90,0 mg/kg | 113,0 mg/kg |  |
| CCOC(=O)CCN(C(=O)NC)N(C)C [I-8, 3-(2,2-dimethyl-1-methylcarbamoylhydrazino)-ethylpropionate] | 11,9 | 1870 | 99,4 mg/kg | 112,0 mg/kg |  |  | 123,2 mg/kg | 124,6 mg/kg |  |
| C=CCNC(=S)N(CCC(=O)OCC)N(C)C [I-9, 3-(2,2-dimethyl-1-allylthiocarbamoylhydrazino)ethylpropionate] | 11,4 | 1780 | 91,8 mg/kg | 107 mg/kg |  |  | 104,8 mg/kg | 116,5 mg/kg |  |
| CCOC(=O)CCN(C(=S)Nc1ccccc1)N(C)C [I-10, 3-(2,2-dimethyl-1-phenylthiocarbamoylhydrazino)ethylpropionate] | 11,5 | 1800 | 102,0 mg/kg | 108,8 mg/kg | 115,8 mg/kg | 125,7 mg/kg |  |  |  |
| COC(=O)C(C)CN(C(N)=O)N(C)C (centres unmarked) [I-11, 3-(2,2-dimethyl-1-carbamoylhydrazino)-2-methyl-methylpropionate] | 11,8 | 1850 | 100,3 mg/kg | 147 mg/kg | 130,7 mg/kg | 136,3 mg/kg |  |  |  |
| CNC(=O)N(CC(C)C(=O)OC)N(C)C (centres unmarked) [I-12, 3-(2,2-dimethyl-1-methylcarbamoylhydrazino)-2-methyl-methylpropionate] | 8,1 | 1270 | 106,0 mg/kg | 110,0 mg/kg | 128,3 mg/kg | 130,5 mg/kg |  |  |  |
| C=CCNC(=S)N(CC(C)C(=O)OC)N(C)C (centres unmarked) [I-13] | 7,8 | 1230 | 117,3 mg/kg | 136,5 mg/kg | 126,0 mg/kg | 138,0 mg/kg |  |  |  |
| COC(=O)C(C)CN(C(=S)Nc1ccccc1)N(C)C (centres unmarked) [I-14] | 12,5 | 1960 | 96,4 mg/kg | 114,1 mg/kg | 85 mg/kg | 101,0 mg/kg |  |  |  |
| CNC(=O)N(CCC(N)=O)N(C)C [I-15, 3-(2,2-dimethyl-1-methylcarbamoylhydrazino)-propionamide] | 23 | 3600 | 97,8 mg/kg | 109 mg/kg | 100,7 mg/kg | 108,5 mg/kg |  |  |  |
| CN(C)N(CCC(N)=O)C(=O)Nc1ccccc1 [I-16, 3-(2,2-dimethylamino-1-phenylcarbamoylhydrazino)propionamide] |  | 925 | 92,0 mg/kg | 115,3 mg/kg | 102,5 mg/kg | 125,0 mg/kg |  |  | 5,9 |
